Reference: patent US4778796A, “ω-(3-pyridyl)alkenamide derivatives and anti-allergenic pharmaceutical compositions containing same” (Dainippon Pharmaceutical Co., Ltd., priority 1985, dated 1988)
pIC50: −log10 of the molar value. Structures can show the parent of a compound that is named as a salt. Where two headings read alike, the source gives them in different places. One block for each molecule: values may come before it.

Columns and labels:
[1] = system: passive cutaneous anaphylaxis (PCA); experiment: Inhibitory effect on passive cutaneous anaphylaxis (PCA) in rats; format: in vivo, rat (male Wistar); conditions: Rattus norvegicus, read-out: Inhibition (PCA in rats)
Description: (1) Inhibitory effect on passive cutaneous anaphylaxis (PCA) in rats:
This test was carried out by the method of Perper et al. [cf.
Male Wistar rats (130-180 g) were injected with 0.1 ml of a dilute solution of mouse antiserum to egg albumin in two sites of the shaved ventral skin. Forty-eight hours later each rat was challenged by an intravenous injection of 2 mg of the antigen together with 1 ml of a 0.5% Evan's blue saline solution. The rats were sacrificed 30 minutes after the challenge. The area of the blueing lesions was measured on the undersurface of the skin. The average value of the two lesions of each rat was regarded as the response of the rat. Test compounds in a dose of 20 mg/kg, dissolved or suspended in a 0.5% aqueous tragacanth solution, were administered orally 1 hour before the antigen challenge. The inhibitory rate was determined by comparing the responses of the rats given each test compound with those of the rats given only a 0.5% aqueous tragacanth solution. Each group of 3 rats was used for each test compound. The mouse antiserum to egg albumin was produced by the method of Levine and Vaz [cf. Int. Arch. Allergy Appl.

[2] = system: contact hypersensitivity to oxazolone; experiment: Inhibitory effect on contact hypersensitivity to oxazolone in mice; format: in vivo, mouse (male ICR); conditions: topical, 24 hours after challenge
Description: (3) Inhibitory effect on contact hypersensitivity to oxazolone in mice:
This test was carried out by the method of Evans et al. [cf. Brit.
Male ICR mice (18-20 g) were used. The abdominal region of the mice was carefully clipped with an electric clipper, and 0.1 ml of a 0.5 w/v % oxazolone solution in absolute ethanol was gently rubbed into the clipped area. Five days after the sensitization 20 μl of a 0.5 w/v % oxazolone solution in acetone or chloroform, or the solution containing test compound was applied to both sides of the right ear. The left ear was not treated. Twenty-four hours after the challenge, the animals were sacrificed with diethyl ether. The circular parts (5.5 mm in diameter) of both ears were removed by punching and then weighed. The inhibitory rate was determined by comparing the ear swelling of the mice treated with oxazolone containing test compound with that of the mice treated with oxazolone. Each group of 8 mice was used for each dose of the test compound.

5-lipoxygenase = molecular target: T1, 5-lipoxygenase (Cavia porcellus, UniProt A0A286X958); experiment: Inhibitory effect on 5-lipoxygenase activity in guinea pig leukocytes; format: biochemical, guinea pig (male Hartley); conditions: for inhibition at 10 µM: 10^-5 M
T1 construct: The cytosol fraction of peritoneal exudate cells from male Hartley guinea pigs (400-700 g) was used as 5-lipoxygenase; from tissue; host or cells: cytosol fraction of peritoneal exudate cells (leukocytes) of male Hartley guinea pigs
T1 sequence (A0A286X958 1-674): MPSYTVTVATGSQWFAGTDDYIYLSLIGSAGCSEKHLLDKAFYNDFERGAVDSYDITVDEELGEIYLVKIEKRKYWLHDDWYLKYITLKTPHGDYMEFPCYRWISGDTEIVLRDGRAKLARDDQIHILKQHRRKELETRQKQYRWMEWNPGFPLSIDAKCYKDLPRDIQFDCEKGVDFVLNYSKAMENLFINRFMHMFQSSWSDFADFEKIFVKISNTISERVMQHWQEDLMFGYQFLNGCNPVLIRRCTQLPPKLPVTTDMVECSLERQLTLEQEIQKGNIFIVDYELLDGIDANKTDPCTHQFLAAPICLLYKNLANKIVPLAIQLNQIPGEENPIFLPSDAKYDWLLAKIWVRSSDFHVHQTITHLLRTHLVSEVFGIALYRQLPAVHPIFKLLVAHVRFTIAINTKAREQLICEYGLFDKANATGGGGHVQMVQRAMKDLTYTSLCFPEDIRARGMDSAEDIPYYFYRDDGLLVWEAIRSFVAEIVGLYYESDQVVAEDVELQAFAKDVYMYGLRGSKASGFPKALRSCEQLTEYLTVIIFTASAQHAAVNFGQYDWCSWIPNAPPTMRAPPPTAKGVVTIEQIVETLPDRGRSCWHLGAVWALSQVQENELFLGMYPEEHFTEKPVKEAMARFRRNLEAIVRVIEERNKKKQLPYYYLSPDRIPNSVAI
Description: (1) Inhibitory effect on 5-lipoxygenase activity in guinea pig leukocytes:
This test was carried out by the method of Miyamoto and Obata (cf. "Perspectives in Prostaglandin Research," ed. by Y. Shiokawa et al., Excepta Medica, Amsterdam-Oxford-Princeton, 1983, p78) with minor modifications.
The cytosol fraction of peritoneal exudate cells from male Hartley guinea pigs (400-700 g) was used as 5-lipoxygenase. The standard reaction mixture contained 50 mM potassium phosphate buffer, 1 mM CaCl2, 1 mM glutathione, 1 mM adenosine triphosphoric acid, 10 μM indomethacin and the enzyme. The mixture was incubated for 5 minutes at 30° C. after addition of [1-^14 C]arachidonic acid (0.02 μCi). The reaction was terminated by addition of 0.6 ml of the cold organic solvents (diethyl ether/methanol/0.2M citric acid=30/4/1). The organic layer (300 μl) was applied onto a precoated silica gel 60F254 glass plate (E. Merck, West Germany). Radioactivity on the plate was monitored by a radiochromatogram scanner (Packard, U.S.A.). 5-Lipoxygenase activity was calculated according to the following equation. [formula]
The effects of the test compounds were expressed in terms of percent inhibition.

experimental asthma = experiment: Inhibitory effect on experimental asthma in rats; format: in vivo, rat (male Wistar); conditions: Rattus norvegicus, po
Description: (2) Inhibitory effect on experimental asthma in rats: This test was carried out by the method of Church and Miller [cf. Brit. […] Male Wistar rats (200-250 g) were sensitized by an intraperitoneal injection of 1 ml of a 0.01% egg albumin solution containing 1 mg of Al(OH)3. Two weeks later, the rats were anesthetized with 1.3 g/kg of urethane. The trachea and jugular vein were cannulated. Respiratory volume and velocity were measured by attaching one end of the tracheal cannula to respiratory volume meter connected to a carrier amplifier and an integrator. The rats were challenged by an intravenous injection of 4 mg/kg of egg ablumin 30 minutes after the anesthesia. Test compounds, dissolved or suspended in a 0.5% aqueous tragacanth solution, were administered orally 1 hour before the antigen challenge. Each group of 4 rats was used for each dose of the test compound. ED50 values were calculated from the best fit linear regression line of inhibitory rates of respiratory volume and velocity in each dose.

[3] = system: histamine-induced contraction of isolated guinea pig trachea; experiment: Inhibitory effect on histamine-induced contraction of isolated guinea pig trachea; parameters: species or system guinea pig (male Hartley); conditions: for pIC50: 3×10^-5 M histamine, isolated guinea pig trachea, read-out: Anti-hist. activity IC50
Description: (2) Inhibitory effect on histamine-induced contraction of isolated guinea pig trachea:
Male Hartley guinea pigs (400-700 g) were used. Zig-zag strips of guinea pig trachea were prepared by the method of Emmerson and Mackay [cf. J. Pharm. […] Dose-response curves for histamine were obtained before and 5 minutes after the addition of test compounds. Inhibitory rate was calculated from contraction heights in 3×10^-5 M of histamine without vs. with test compound.

human basophils = experiment: Inhibitory effect on histamine release induced by anti-human IgE antibody from healthy human basophils; format: cell-based; conditions: Homo sapiens, read-out: Histamine release inhibit. IC50
Description: (3) Inhibitory effect on histamine release induced by anti-human IgE antibody from healthy human basophils:
Basophils from nonallergic volunteers were collected by the method of Levy and Osler [cf. […] The cells were washed once with a cold Tris-A buffer at pH 7.4 (25 mM Tris, 120 mM NaCl, 5 mM KCl and 0.03% human serum albumin) containing 4 mM EDTA and twice with Tris-A buffer. After washing, the cells were resuspended at 5-10×10^6 leukocytes/ml in Tris-ACM buffer at pH 7.6 (Tris-A buffer, 0.6 mM CaCl2 and 1 mM MgCl2). One ml of the cell suspension was incubated with 0.1 ml of a solution of test compound or vehicle for 15 minutes at 37° C., and then for further 45 minutes with 0.1 ml of anti-human IgE antibody. After ice-cooling, the reaction mixtures were centrifuged at 1,200 rpm for 8 minutes at 4° C. The supernatant fluids and the cells were analysed separately for histamine by a modification of the spectrophotofluorometric technique of Shore et al. [cf. […] Histamine release rate was calculated according to the following equation. [formula] A: total histamine (supernatant+cell) B: supernatant histamine without anti-IgE
C: supernatant histamine with anti-IgE
Inhibitory rate was calculated from histamine release rates without vs. with test compound.

[4] = Acute lethal toxicity in mice; conditions: mouse, in vivo; oral, mortality observed for two weeks
Description: Test 3 Acute lethal toxicity in mice
Test compounds were suspended in a 0.5% aqueous tragacanth solution. LD50 values were calculated according to the method of Litchfield and Wilcoxon [cf. J. Pharmacol. Exp. Ther., 96, 99 (1949)].

[5] = 20 mg/kg, oral, 1 hour before antigen challenge
[6] = read-out: 5-Lipoxygenase inhibit. activity, Inhibition

Compound: O=C(C=Cc1cccnc1)NCC=CCN1CCN(C(c2ccccc2)c2ccccc2)CC1 [Example 90, N-[3-(3-pyridyl)acryloyl]-4-(4-diphenylmethyl-1-piperazinyl)-2-butenylamin]
inhibition in vivo at 20 mg/kg [1, 5]: 83.3%
% Inhibition of ear swelling ([2]; 0.3 mg/ear): 46.3%

Compound: CN1CCC(=C2c3ccccc3CC(=O)c3sccc32)CC1 [Ketotifen fumarate, reference compound]
inhibition in vivo at 20 mg/kg ([1]; po): 54.7%
ED50 (experimental asthma; read-out: ED50, respiratory velocity): 20.5 mg/kg
ED50 (experimental asthma; read-out: ED50, respiratory volume): 22.6 mg/kg
% Inhibition of ear swelling ([2]; 1.0 mg/ear): 49.0%
5-lipoxygenase inhibiting activity (in words) (5-lipoxygenase; 10^-4 M): did not exhibit any significant inhibiting activity
inhibition at 100 µM (5-lipoxygenase; 10^-4 M, read-out: 5-Lipoxygenase inhibit. activity, Inhibition): 11.5%
pIC50 [3]: 8.54
pIC50 (human basophils): < 4.00
LD50 at 336 h [4]: 537 mg/kg

Compound: Cc1ccc(C=CC(=O)NCCCCN2CCN(C(c3ccccc3)c3ccccc3)CC2)c(C)n1 [Example 50]
inhibition in vivo at 20 mg/kg [1, 5]: 66.8%
inhibition at 10 µM (5-lipoxygenase; [6]): 61.2%

Compound: C/C(=C\c1cccnc1)C(=O)NCCCCN1CCN(C(c2ccccc2)c2ccccc2)CC1 [Example 76]
inhibition in vivo at 20 mg/kg [1, 5]: 78.9%
% Inhibition of ear swelling ([2]; 0.3 mg/ear): 65.8%
inhibition at 10 µM (5-lipoxygenase; [6]): 43.5%

Compound: Cc1ccc(C=CC(=O)NCCCCCN2CCN(C(c3ccccc3)c3ccccc3)CC2)cn1 [Example 15]
inhibition at 10 µM (5-lipoxygenase; [6]): 48.6%

More lines, main results first:

inhibition at 10 µM (5-lipoxygenase; [6]): 72.7%
Compound: Cc1ncc(C=CC(=O)NCCCCN2CCN(C(c3ccccc3)c3ccccc3)CC2)c(CO)c1O [Example 38, N-[3-(5-hydroxy-4-hydroxymethyl-6-methyl-3-pyridyl)acryloyl]-4-(4-diphenylmethyl-1-piperazinyl)butylamine]
% Inhibition of ear swelling ([2]; 0.3 mg/ear): 83.8%

inhibition at 10 µM (5-lipoxygenase; [6]): 59.6%
Compound: O=C(C=Cc1ccccn1)NCCCCN1CCN(C(c2ccccc2)c2ccccc2)CC1 [Example 11]

inhibition at 10 µM (5-lipoxygenase; [6]): 60.3%
Compound: O=C(C=CC=Cc1cccnc1)NCCCN1CCN(C(c2ccccc2)c2ccccc2)CC1 [Example 84]

pIC50 [3]: 6.02
Compound: O=C(C=Cc1cccnc1)NCCCCN1CCN(C(c2ccccc2)c2ccccc2)CC1 [Example 1, N-[3-(3-pyridyl)acryloyl]-4-(4-diphenylmethyl-1-piperazinyl)butylamine]
inhibition in vivo at 20 mg/kg [1, 5]: 62.3%
ED50 (experimental asthma; 1 hour before antigen challenge, respiratory velocity, read-out: ED50, respiratory velocity): 14.1 mg/kg
ED50 (experimental asthma; 1 hour before antigen challenge, respiratory volume, read-out: ED50, respiratory volume): 13.3 mg/kg
antihistamine activity (in words) ([3]; compared with ketotifen fumarate): potent antihistamine activity, though fairly inferior to that of ketotifen fumarate

inhibition at 10 µM (5-lipoxygenase; [6]): 54.6%
Compound: O=C(C=Cc1ccc(Cl)nc1)NCCCCN1CCN(C(c2ccccc2)c2ccccc2)CC1 [Example 37]

inhibition at 10 µM (5-lipoxygenase; [6]): 45.5%
Compound: O=C(C=Cc1ccc(O)nc1)NCCCCN1CCN(C(c2ccccc2)c2ccccc2)CC1 [Example 44]

inhibition at 10 µM (5-lipoxygenase; [6]): 68.6%
Compound: Cc1ccc(O)c(C=CC(=O)NCCCCN2CCN(C(c3ccccc3)c3ccccc3)CC2)n1 [Example 20]

inhibition at 10 µM (5-lipoxygenase; [6]): 66.2%
Compound: COc1ccc(C=CC(=O)NCCCCN2CCN(C(c3ccccc3)c3ccccc3)CC2)cn1 [Example 25]
